# Results taken from PubChem BioAssay (NCI).
# “And” between values parts separate entries of the source, which are not always exact repeats. Equal values may be shown once.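 Cells were grown in 96-well plates and exposed to each compound for 48 hours at five concentrations; endpoints were interpolated linearly between bracketing concentrations, or set to the highest concentration if not reached. The concentration for 50% growth inhibition is given as GI50. The concentration for full growth arrest is given as TGI.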 Where a SMILES comes first, the peptide text is derived from it. [ ]: non-standard residue; d: D form. The star is where a group is joined. ξ: configuration not given here. X3 = COc1ccc(C(N*)c2ccc(OC)cc2)cc1; NMeF = CN[C@@H](Cc1ccccc1)C(=O)O; NMeD = CN[C@@H](CC(=O)O)C(=O)O; NMeV = CN[C@H](C(=O)O)C(C)C; ξNMeV = CNC(C(=O)O)C(C)C; Boc = CC(C)(C)OC(=O)*; ξNMeA = CNC(C)C(=O)O; ξV = CC(C)C(N)C(=O)O
# What was measured:
# Test in all cases: growth of human tumour cells (NCI), 48 h
# CAKI-1 renal = test system: CAKI-1 renal
# CCRF-CEM leukemia = test system: CCRF-CEM leukemia
# HT29 colon = test system: HT29 colon
# IGROV1 ovarian = test system: IGROV1 ovarian
# NCI-H226 lung = test system: NCI-H226 lung
# NCI-H522 lung = test system: NCI-H522 lung
# NCI/ADR-RES ovarian = test system: NCI/ADR-RES ovarian
# OVCAR-4 ovarian = test system: OVCAR-4 ovarian
# SW-620 colon = test system: SW-620 colon
# UACC-62 melanoma = test system: UACC-62 melanoma
Structure (SMILES),GI50 (CAKI-1 renal),TGI (CAKI-1 renal),GI50 (CCRF-CEM leukemia),TGI (CCRF-CEM leukemia),GI50 (HT29 colon),TGI (HT29 colon),GI50 (IGROV1 ovarian),TGI (IGROV1 ovarian),GI50 (NCI-H226 lung),TGI (NCI-H226 lung),GI50 (NCI-H522 lung),TGI (NCI-H522 lung),GI50 (NCI/ADR-RES ovarian),TGI (NCI/ADR-RES ovarian),GI50 (OVCAR-4 ovarian),TGI (OVCAR-4 ovarian),GI50 (SW-620 colon),TGI (SW-620 colon),GI50 (UACC-62 melanoma),TGI (UACC-62 melanoma)
CN(C)c1cc(NN=C(c2ccc(O)cc2)c2ccc(O)cc2)c([N+](=O)[O-])cc1[N+](=O)[O-],6.76 µM,20.2 µM,2.58 µM,17.9 µM,10 µM,23.7 µM,7.16 µM,24.8 µM,13.1 µM,32.3 µM,10.5 µM,38.4 µM,5.3 µM,27 µM,5.77 µM,28 µM,11.4 µM,24.2 µM,3.41 µM,14.4 µM
CCCCCCCCCCCCC(O)c1ccc(C#CCCCCCCCCCO)o1 (stereo not drawn),18.6 µM,33.1 µM,23.2 µM,51.4 µM,69.9 µM,> 100 µM,25.9 µM,51.8 µM,21.2 µM,37.9 µM,21 µM,45.5 µM,18.3 µM,34.3 µM,45.1 µM,> 100 µM,22.7 µM,41.4 µM,19.7 µM,40.3 µM
COc1ccc(C(NC(=O)C[C@@H](C(=O)N(C)C(C)C(=O)O)N(C)C(=O)[C@@H]2CCCN2C(=O)[C@H](C(C)C)N(C)C(=O)C(C(C)C)N(C)C(=O)[C@H](Cc2ccccc2)N(C)C(=O)C(NC(=O)OC(C)(C)C)C(C)C)c2ccc(OC)cc2)cc1 (stereo partly drawn) (Boc-[ξV][NMeF][ξNMeV][NMeV]P[NMeD](X3)[ξNMeA]-OH),22.9 µM,37.5 µM,19.8 µM,17.5 µM and 41.6 µM,,37.2 µM and 32.4 µM,14.7 µM,27.8 µM and 28 µM,18 µM,19.2 µM and 32.3 µM,17.5 µM,27.4 µM and 31.3 µM,,> 37.5 µM,24.8 µM,37.5 µM and 64.5 µM,18.3 µM,16.5 µM and 32.3 µM,0.803 µM,12.5 µM and 20.9 µM
CC1(COc2ccc3c(c2)ncn3-c2ccc3cccc(N4CCC(N)CC4)c3n2)COC1,4.75 µM and 3.55 µM,19.6 µM and > 10 µM,2.02 µM and 1.39 µM,6.44 µM and 5.86 µM,2.92 µM and 3.29 µM,7.99 µM and > 10 µM,4.07 µM and 2.57 µM,14 µM and > 10 µM,3.18 µM and 2.54 µM,9.32 µM and > 10 µM,1.21 µM and 1.6 µM,3.3 µM and 5.19 µM,7.04 µM and > 10 µM,20.6 µM and > 10 µM,2.89 µM and 3.53 µM,8.15 µM and > 10 µM,3.09 µM and 2.52 µM,11 µM and > 10 µM,16.7 µM and > 10 µM,34.4 µM and > 10 µM
CCn1c(-c2nonc2N)nc2c(C#CC(C)(C)O)nc(OC[C@@H](N)c3ccccc3)cc21,6.53 µM,14.1 µM,4.08 µM,23.3 µM,4.9 µM,9.53 µM,5.04 µM,10.4 µM,11.9 µM,16.2 µM,4.28 µM,7.9 µM,5.16 µM,11.7 µM,6.78 µM,13.3 µM,4.58 µM,9.5 µM,4.89 µM,8.79 µM
O=C(Nc1ccc(Oc2ccc(Nc3nc4ccccc4s3)cc2)cc1)Nc1ccc(Cl)c(C(F)(F)F)c1,2.05 µM,7.98 µM,1.76 µM,> 100 µM,1.72 µM,3.23 µM,1.67 µM,3.62 µM,1.39 µM,3.33 µM,1.51 µM,3.39 µM,1.8 µM,4.11 µM,1.31 µM,3.16 µM,1.75 µM,3.54 µM,1.23 µM,2.57 µM
CCCCCCCCCCn1cc[n+](C)c1,1.79 µM,23.5 µM,0.43 µM,4.51 µM,2.23 µM,19.2 µM,2.07 µM,10.1 µM,2.43 µM,47 µM,1.86 µM,10.4 µM,47.4 µM,> 100 µM,1.31 µM,> 61.4 µM,3.3 µM,33 µM,2.53 µM,10.6 µM
COc1ccc2nc3cc(Cl)ccc3c(NCCNCC(C)O)c2c1 (stereo not drawn),1.57 µM,4.54 µM,2.46 µM,8.66 µM,0.691 µM,3.03 µM,2.69 µM,10.2 µM,2.3 µM,6.04 µM,1.48 µM,3.1 µM,3.08 µM,14 µM,1.57 µM,4.8 µM,0.818 µM,10.3 µM,2.01 µM,4.31 µM
O=C1NC(=NC(CO)Cc2ccccc2)S/C1=C\c1ccc2ncccc2c1 (stereo not drawn),9.35 µM and 3.64 µM,> 25 µM,10.6 µM and 4.89 µM,> 25 µM,16.2 µM and 4.74 µM,> 25 µM,12.8 µM and 2.08 µM,> 25 µM,> 25 µM and 5.55 µM,> 25 µM,8.38 µM and 2.85 µM,> 25 µM and 10 µM,> 25 µM,> 25 µM,> 21.4 µM and 4.17 µM,> 25 µM,9.04 µM and 0.927 µM,> 25 µM,14.6 µM and 5.27 µM,> 25 µM
c1ccc(Sc2ncnc3ccccc23)cc1,12.7 µM,32.3 µM,2.9 µM,61.4 µM,19.3 µM,44.7 µM,4.5 µM,34.3 µM,13.4 µM,56.2 µM,7.19 µM,29.1 µM,11.8 µM,35 µM,8.05 µM,> 100 µM,14.6 µM,34.8 µM,9.06 µM,23.5 µM
Cc1nnc(NC(=O)c2nc(S(=O)(=O)Cc3ccc(F)cc3)ncc2Cl)s1,1.78 µM,3.24 µM,1.52 µM,3.65 µM,2.34 µM,5.8 µM,4.87 µM,19.1 µM,6.27 µM,25.7 µM,0.729 µM,2.46 µM,14.2 µM,50.1 µM,1.8 µM,3.8 µM,1.51 µM,3.25 µM,1.61 µM,3.01 µM
CC(=O)CC(OC(C)=O)C1=CCC2C(CC1C)OC(=O)C2C (stereo not drawn),,> 100 µM,,> 100 µM,,> 100 µM,,> 100 µM,,> 100 µM,,> 100 µM,,> 100 µM,,> 100 µM,,> 100 µM,,> 100 µM
